The record followed here is patent US20250059187A1, “COVALENTLY BINDING INHIBITORS OF G12S, G12D AND/OR G12E MUTANTS OF K-RAS GTPASE” (The Regents of the University of California, priority 2021, published 2025).

Data set [1] addresses T1, K-Ras G12D (Homo sapiens, UniProt P01116, G12D).
T1 construct: human K-Ras (G12D, aa 1-169); 6xHis tag + TEV cleavage site (N, cleaved yes); made in house; host or cells: E. coli BL21(DE3)
Nature of the data set: Covalent modification of recombinant K-Ras(G12D) by whole-protein mass spectrometry. The format is binding. The protocol:
(§1) Test compounds were prepared as 100× stock solutions in DMSO. K-Ras proteins were diluted with SEC Buffer (20 mM HEPES 7.5, 150 mM NaCl, 1 mM MgCl2) to 400 nM or 1 μM. In a typical reaction, 0.5 μL 100× compound stock was mixed with 50 μL diluted K-Ras protein, and the resulting mixture was incubated for the desired amount of time. The extent of modification was assessed by electrospray mass spectrometry using a Waters Xevo G2-XS system equipped with an Acquity UPLC BEH C4 1.7 μm column. The mobile phase was a linear gradient of 5-95% acetonitrile/water+0.05% formic acid. For kinetic measurements, a 2× compound solution was first prepared in SEC Buffer, which was then mixed with 400 nM K-Ras(G12D) protein at 1:1 (v/v) ratio. Injection time stamps were used to calculate elapsed time.

Data set [2] in a line: Stability of substituted β-lactones in PBS 7.4 at 23° C. It counts as physicochemical. The settings on record: for half-life: PBS, pH 7.4, read-out: half-life (hydrolysis) (converted).
For a further data set, the system named is BaF3/K-Ras(G12D) cells. Kind of data set: Growth inhibition of BaF3/K-Ras(G12D) cells. It counts as cell-based, murine. The note with it: Mus musculus. As for the experimental part:
Cells were seeded into 96-well white flat bottom plates (1,000 cells/well) (Corning) and incubated overnight. Cells were treated with the indicated compounds in a nine-point threefold dilution series (100 μL final volume) and incubated for 72 h. Cell viability was assessed using a commercial CellTiter-Glo (CTG) luminescence-based assay (Promega). Briefly, the 96-well plates were equilibrated to room temperature before the addition of diluted CTG reagent […] (1:4 CTG reagent:PBS). Plates were placed on an orbital shaker for 30 min before recording luminescence using a Spark 20M (Tecan) plate reader.

Data set [3] addresses T2, wild type K-Ras (Homo sapiens, UniProt P01116).
T2 construct: human K-Ras (wildtype, aa 1-169); 6xHis tag + TEV cleavage site (N, cleaved yes); made in house; host or cells: E. coli BL21(DE3)
Kind of data set: Covalent modification of recombinant wild-type K-Ras by whole-protein mass spectrometry. It counts as binding. The note with it: 23° C.; for % covalent modification of wild type K-Ras: 24-h incubation, 100 μM compound, pH 7.5. As for the experimental part:
as §1, with “K-Ras(G12S)” for “K-Ras(G12D)”
as §1

In the next data set the target is T3, K-Ras(G12S)·GDP (Homo sapiens, UniProt P01116, G12S).
T3 construct: human K-Ras (G12S, aa 1-169); 6xHis tag + TEV cleavage site (N, cleaved yes); made in house; host or cells: E. coli BL21(DE3)
Nature of the data set: Differential scanning fluorimetry of K-Ras(G12S)·GDP and its adduct. The format is binding. As for the experimental part:
(§2) The protein of interest was diluted with SEC Buffer [20 mM HEPES 7.5, 150 mM NaCl, 1 mM MgCl2] to 8 μM. This solution was dispensed into wells of a white 96-well PCR plate in triplicate (25 μL/well). Fluorescence was measured at 0.5-° C. temperature intervals every 30 s from 25° C. to 95° C. on a Bio-Rad CFX96 qPCR system using the FRET setting. Each data set was normalized to the highest fluorescence and the normalized fluorescence reading was plotted against temperature in GraphPad Prism 8.0. Tm values were determined as the temperature(s) corresponding to the maximum(ma) of the first derivative of the curve.
On the technique in general: Differential scanning fluorimetry follows unfolding on heating by fluorescence.

In data set [4] the target is T2, wild type K-Ras. Nature of the data set: Covalent modification of test protein after incubation with compound. It counts as binding. The settings on record: 24-h incubation with 100 μM compound at 23° C. at pH 7.5.
Data set [5] deals with T1, K-Ras G12D. The data set is described as above. It counts as binding. The note with it: 24-h incubation with 100 μM compound at 23° C. at pH 7.5.
In the next data set the target is T4, K-Ras G12E (Homo sapiens, UniProt P01116, G12E).
T4 construct: human K-Ras (G12E, aa 1-169); 6xHis tag + TEV cleavage site (N, cleaved yes); made in house; host or cells: E. coli BL21(DE3)
The description is as above. It counts as binding. The settings on record: 24-h incubation with 100 μM compound at 23° C. at pH 7.5.

The target of data set [6] is T5, K-Ras(G12S) (Homo sapiens, UniProt P01116, G12S). Nature of the data set: Covalent modification of recombinant K-Ras(G12S) by whole-protein mass spectrometry. It counts as binding. Further details: human K-Ras (G12S, aa 1-169); 6xHis tag + TEV cleavage site (N, cleaved yes); made in house; host or cells: E. coli BL21(DE3). The note with it: for extent of modification of K-Ras(G12S)·GDP: 10 μM compound, 4 μM protein; for % covalent modification of K-Ras G12S: 24-h incubation, 100 μM compound, pH 7.5. As for the experimental part:
as §1, with “The mobile phase was a linear gradient of 5-95% acetonitrile/water+0.05% formic acid.” left out, “K-Ras(G12S)” for “K-Ras(G12D)”
as §1, with “The mobile phase was a linear gradient of 5-95% acetonitrile/water+0.05% formic acid.” left out

The target of data set [7] is T5, K-Ras(G12S). Nature of the data set: Sos- or EDTA-mediated nucleotide exchange assay (BODIPY-GDP). It counts as biochemical. The settings on record: K-Ras(G12S) adduct. Set-up: human K-Ras (G12S, aa 1-169); 6xHis tag + TEV cleavage site (N, cleaved yes); made in house; host or cells: E. coli BL21(DE3) for K-Ras. As for the experimental part: This assay was performed as previously reported (2-5) with slight modifications. BODIPY-GDP-loaded K-Ras proteins were prepared freshly as follows. To a 10 μM solution of K-Ras(wildtype)·GDP, K-Ras(G12S)·GDP, or K-Ras(G12S)·GDP·1′ in SEC Buffer (1 mL) was added sequentially BODIPY-GDP (5 mM, 40 μL, Thermo Fisher, final concentration 200 μM) and Na-EDTA pH 8.0 (0.5 M, 5 μL, final concentration 2.5 mM). The mixture was incubated at 23° C. for 1 h, and a solution of MgCl2 (1.0 M, 20 μL, […]) was added to the reaction mixture. The protein solution was run through a PD-10 column to remove the excess nucleotide following the manufacturer's protocol. Briefly, sample (˜1.0 mL) and excess buffer (1.5 mL) were loaded onto the column (equilibrated with NucEx Buffer), and desalted protein was eluted with NucEx Buffer (3.5 mL). Protein concentration was measured with Bradford assay and adjusted to 1.25 μM with NucEx Buffer. 12 μL of this solution (triplicate for each condition) was added to wells of a black 384-well low-volume assay plate (Corning 4514). […] The plate was immediately placed in a TECAN Spark 20M plate reader, and fluorescence for BODIPY (excitation 488 nm, emission 520 nm) was read every 30 s over 1 h. Fluorescence intensity was normalized to values at time 0 and plotted again time. […]

Data set [8] concerns parental Ba/F3 cells (with IL-3). Nature of the data set: Cell viability assay (CellTiter-Glo), parental Ba/F3 cells. The format is cell-based, murine. The note with it: 10 μM. The protocol: Cells were seeded into 96-well white flat bottom plates (1,000 cells/well) (Corning) and incubated overnight. […] Cell viability was assessed using a commercial CellTiter-Glo (CTG) luminescence-based assay (Promega). Briefly, the 96-well plates were equilibrated to room temperature before the addition of diluted CTG reagent […] (1:4 CTG reagent:PBS). Plates were placed on an orbital shaker for 30 min before recording luminescence using a Spark 20M (Tecan) plate reader.
A general note: ATP-based viability assays read luminescence as a measure of living cells.

For data set [9], the target named is T1, K-Ras G12D. Nature of the data set: Differential scanning fluorimetry of K-Ras(G12D) and its covalent adducts. The format is binding. As for the experimental part:
as §2

Entries after “also recorded” stand apart in the source; their conditions may differ. Like-named read-outs stand apart in the source and are kept apart here.

Usually half-life stands for the time in which the quantity being followed falls by half. On to `O=C1C[C@H](C(=O)N2[C@@H]3CC[C@H]2CN(c2nc(OCC45CCCN4CCC5)nc4c(F)c(-c5cccc6cccc(Cl)c56)ncc24)C3)O1` [Compound 2], for which, at K-Ras G12D [1], the “reactivity with K-Ras(G12D)·GDP” value was “the R enantiomer was more reactive toward K-Ras(G12D)·GDP”. Also, the half-life in data set [2] was 1.7 h.

`C[C@@H]1C(=O)O[C@H]1C(=O)N1[C@@H]2CC[C@H]1CN(c1nc(OCC34CCCN3CCC4)nc3c(F)c(-c4cccc5cccc(Cl)c45)ncc13)C2` [Compound 3]: the half-life in [2] is 2.5 h.

Consider `CC(C)[C@@H]1C(=O)O[C@H]1C(=O)N1[C@@H]2CC[C@H]1CN(c1nc(OCC34CCCN3CCC4)nc3c(F)c(-c4cccc5cccc(Cl)c45)ncc13)C2` [Compound 4], for which the “material remaining intact (hydrolysis)” value in data set [2] (after 24 h, pH 7.4) is listed as more than 90%. Moreover, in the data set on BaF3/K-Ras(G12D) cells (read-out: IC50, growth of BaF3/K-Ras(G12D) cells), the IC50 was found to be 0.071 µM.

As to `CN1CCC[C@H]1COc1nc2c(c(N3CCC4C(=O)OC4C3)n1)CCN(c1cccc3cccc(Cl)c13)C2` (stereo partly shown) [1′], the “covalent adducts with wild-type K-Ras protein” value at wild type K-Ras [3] (10 μM compound, 4 μM protein) is on record as “neither of these compounds formed covalent adducts”. In addition, the “% covalent modification of wild type K-Ras” value on wild type K-Ras [3] and on wild type K-Ras [4] was 7.0% throughout. Further, the “change of melting temperature of K-Ras(G12S)·GDP on adduct formation” value on K-Ras(G12S)·GDP is “+17.2 °C”. Besides, on K-Ras(G12S)·GDP (unmodified K-Ras(G12S)·GDP 53.7° C.), the “melting temperature (Tm) of the K-Ras(G12S)·GDP adduct” value stood at 70.9 °C. The “% covalent modification of K-Ras G12D” value at K-Ras G12D [5] is 7.0%. For the same molecule, the “% covalent modification of K-Ras G12E” value at K-Ras G12E is on record as 12.0%. Besides, the “extent of modification of K-Ras(G12S)·GDP” value on K-Ras(G12S) [6] (1 hour, 23° C.) was 64%; on K-Ras(G12S) [6] (12 h) it was 100%. In addition, on K-Ras(G12S) [6] (23° C.), the “% covalent modification of K-Ras G12S” value was 100%. For the same molecule, the “reaction with GppNHp-loaded K-Ras(G12S)” value on K-Ras(G12S) [6] (GppNHp-loaded protein, identical conditions) is “no reaction was observed; also recorded: does not react”. Also, the “EDTA promoted nucleotide exchange” value on K-Ras(G12S) [7] (EDTA) is on record as “decreased the rate of EDTA promoted exchange”. Besides, the Sos-catalyzed nucleotide exchange entry on K-Ras(G12S) [7] (Sos) is recorded as “blocked Sos-catalyzed exchange”.

`C=C(F)C(=O)N1CCN(c2nc(OC[C@@H]3CCCN3C)nc3c2CCN(c2cccc4cccc(Cl)c24)C3)C[C@@H]1CC#N` [adagrasib, reference compound]: the “cell death of parental Ba/F3 cells” value in [8] is listed as “complete cell death”.

Turning to `N#CC[C@H]1CN(c2nc(OCC34CCCN3CCC4)nc3c(F)c(-c4cccc5cccc(Cl)c45)ncc23)CCN1C(=O)C1CC(=O)O1` (stereo partly shown) [Compound 14-005], the “% covalent modification of wild type K-Ras” value at wild type K-Ras [3] and on wild type K-Ras [4] was 0% throughout. Further, the “thermal stabilization of K-Ras(G12D)·GDP” value on K-Ras G12D [9] (GDP state) is “stabilized K-Ras(G12D)·GDP”. In addition, the “thermal stabilization of K-Ras(G12D)·GppNHp” value at K-Ras G12D [9] (GppNHp state) is reported as “stabilized K-Ras(G12D)·GppNHp”. Moreover, at K-Ras G12D [5], the “% covalent modification of K-Ras G12D” value is on record as 100%. In addition, the “% covalent modification of K-Ras G12E” value at K-Ras G12E was found to be 38.0%. For the same molecule, on K-Ras(G12S) [6] (23° C.), the “% covalent modification of K-Ras G12S” value was 100%.

In the case of `CC(C)[C@H]1C(=O)O[C@@H]1C(=O)N1[C@@H]2CC[C@H]1CN(c1nc(OCC34CCCN3CCC4)nc3c(F)c(-c4cccc5cccc(Cl)c45)ncc13)C2` [(2S, 3R)-4], the “reactivity with K-Ras(G12D)·GDP” value on K-Ras G12D [1] is listed as “did not show any detectable reactivity”. Besides, in the data set on BaF3/K-Ras(G12D) cells (95% CI: 3.1-6.3 μM, read-out: IC50, BaF3/K-Ras(G12D) proliferation), the IC50 stood at 4.4 µM.
